Results reported in patent US20190055280A1, “TRANSITION METAL-BASED SELECTIVE FUNCTIONALIZATION OF CHALCOGENS IN BIOMOLECULES” (Massachusetts Institute of Technoloy, priority 2014, published 2019).
Read-outs that look alike come from different tables or passages of the source. Peptide text beside a SMILES is read from it. * marks the point of attachment. Succinimide(1-Et,3-yl) = CCN1C(=O)CC(*)C1=O; Bn = c1ccc(C*)cc1; X1 = Cc1ccc(*)cc1; Cam = NC(=O)C*

Assay: Stability evaluation of peptide P1 cysteine conjugates in the presence of base, acid or an external thiol nucleophile (LC-MS)
Format: physicochemical
Conditions: for stability toward acids (in words): acidic conditions; for stability toward bases (in words): basic conditions; for stability toward external thiol nucleophiles (in words): exogenous thiol
Protocol: All reported yields were determined by integrating TIC spectra. First, the peak areas for all relevant peptide-containing species on the chromatogram were integrated using Agilent MassHunter software package. Since no peptide-based side products were generated in the experiments, the yields shown in Table 2 were determined as follows: % yield=Spr/Stotal where Spr is the peak area of the product and Stotal is the peak area of combined peptide-containing species (product and starting material). The yield of the stapled peptide (Example 19) was calculated as follows: % yield=k·Spr/Sst where Spr is the peak area of the reaction product, Sst is the peak area of a known amount of purified product, and k equals to the ratio of the known amount of standard divided by the initial amount of starting material. For peptide stability experiments the conversion was calculated as following: % remaining peptide=St/S0 where St is the peak area of the corresponding cysteine conjugate at time t, and S0 is the peak area of the cysteine conjugate at time 0.
Peptide P1 conjugates were pre-dissolved in water in plastic Eppendorfs to afford the 1.11 mM stock solutions used in the stability evaluation experiments. For each experiment, the corresponding cysteine conjugate (1.11 mM; 18 μL) and stability test reagent (2 μL, 50 mM in H2O or 50 mM in 1M Tris, pH 7.4) were combined in a plastic Eppendorf and left at rt for 2 days, followed by 4 days at 37° C. After this time, individual reactions were quenched with a solution of 50% A:50% B (v/v, 200 μL) and the resulting samples were analyzed by LC-MS.
Stability test reagent: K2CO3 (2 μL, 50 mM in H2O); Final conditions before quenching: 1 mM peptide, 5 mM K2CO3; 2 d at rt, then 4 d at 37° C.
Stability test reagent: HCl (2 μL, 1 M in H2O); Final conditions before quenching: 1 mM peptide, 0.1 M HCl; 2 d at rt, then 4 d at 37° C.
Stability test reagent: Glutathione (2 μL, 50 mM in 1 M Tris; pH 7.4); Final conditions before quenching: 1 mM peptide, 5 mM GSH, 0.1M Tris, pH 7.4; 2 d at rt, then 4 d at 37° C.

[1] = 5 mM aqueous K2CO3, 1 mM peptide, 5 mM K2CO3, 2 d at rt, then 4 d at 37° C., read-out: % remaining peptide, base
[2] = 0.1 M Tris buffer with 5 mM glutathione, 1 mM peptide, 5 mM GSH, 0.1M Tris, pH 7.4, 2 d at rt, then 4 d at 37° C., read-out: % remaining peptide, GSH
[3] = 0.1 M aqueous HCl, 1 mM peptide, 0.1 M HCl, 2 d at rt, then 4 d at 37° C., read-out: % remaining peptide, acid

Row | SMILES | remaining at 144 h, 1 mM [1] | remaining at 144 h, 1 mM [2] | remaining at 144 h, 1 mM [3] | stability toward acids (in words) | stability toward bases (in words) | stability toward external thiol nucleophiles (in words) | % remaining peptide, base (1 mM peptide, 5 mM K2CO3, 2 d at rt, then 4 d at 37° C.)
1 | CC(C)C[C@H](NC(=O)CNC(=O)[C@H](C)NC(=O)[C@H](CSCc1ccccc1)NC(=O)CNC(=O)[C@H](CC(C)C)NC(=O)[C@H](Cc1ccc(O)cc1)NC(=O)[C@H](Cc1ccccc1)NC(=O)[C@H](CC(N)=O)NC(=O)[C@H](CO)NC(=O)[C@@H](N)CCCNC(=N)N)C(=O)N[C@@H](C)C(=O)N[C@@H](Cc1c[nH]cn1)C(=O)N[C@@H](CC(=O)O)C(=O)N[C@@H](CCCCN)C(=O)N[C@@H](C)C(=O)N[C@H](C(N)=O)[C@@H](C)O (H-RSNFYLGC(Bn)AGLAHDKAT-NH2) | 84% | 88% | 85% | – | – | – | –
2 | CC(C)C[C@H](NC(=O)CNC(=O)[C@H](C)NC(=O)[C@H](CSCC(N)=O)NC(=O)CNC(=O)[C@H](CC(C)C)NC(=O)[C@H](Cc1ccc(O)cc1)NC(=O)[C@H](Cc1ccccc1)NC(=O)[C@H](CC(N)=O)NC(=O)[C@H](CO)NC(=O)[C@@H](N)CCCNC(=N)N)C(=O)N[C@@H](C)C(=O)N[C@@H](Cc1c[nH]cn1)C(=O)N[C@@H](CC(=O)O)C(=O)N[C@@H](CCCCN)C(=O)N[C@@H](C)C(=O)N[C@H](C(N)=O)[C@@H](C)O (H-RSNFYLGC(Cam)AGLAHDKAT-NH2) | 66% | 85% | 63% | unstable | unstable | – | –
3 | CCN1C(=O)CC(SC[C@H](NC(=O)CNC(=O)[C@H](CC(C)C)NC(=O)[C@H](Cc2ccc(O)cc2)NC(=O)[C@H](Cc2ccccc2)NC(=O)[C@H](CC(N)=O)NC(=O)[C@H](CO)NC(=O)[C@@H](N)CCCNC(=N)N)C(=O)N[C@@H](C)C(=O)NCC(=O)N[C@@H](CC(C)C)C(=O)N[C@@H](C)C(=O)N[C@@H](Cc2c[nH]cn2)C(=O)N[C@@H](CC(=O)O)C(=O)N[C@@H](CCCCN)C(=O)N[C@@H](C)C(=O)N[C@H](C(N)=O)[C@@H](C)O)C1=O (stereo partly shown) (H-RSNFYLGC(Succinimide(1-Et,3-yl))AGLAHDKAT-NH2) | 0% | 37% | 84% | – | decomposed | decomposed | –
4 | Cc1ccc(SC[C@H](NC(=O)CNC(=O)[C@H](CC(C)C)NC(=O)[C@H](Cc2ccc(O)cc2)NC(=O)[C@H](Cc2ccccc2)NC(=O)[C@H](CC(N)=O)NC(=O)[C@H](CO)NC(=O)[C@@H](N)CCCNC(=N)N)C(=O)N[C@@H](C)C(=O)NCC(=O)N[C@@H](CC(C)C)C(=O)N[C@@H](C)C(=O)N[C@@H](Cc2c[nH]cn2)C(=O)N[C@@H](CC(=O)O)C(=O)N[C@@H](CCCCN)C(=O)N[C@@H](C)C(=O)N[C@H](C(N)=O)[C@@H](C)O)cc1 (H-RSNFYLGC(X1)AGLAHDKAT-NH2) | – | 90% | 83% | stable | stable | stable | 83%
